Measured values taken from patent US8906825B2, “Herbicidal compositions comprising 4-amino-3-chloro-5-fluoro-6-(4-chloro-2-fluoro-3-methoxyphenyl) pyridine-2-carboxylic acid or a derivative thereof and triazolopyrimidine sulfonamides” (Dow AgroSciences LLC, priority 2012, dated 2014).

Tests used:
Format in all cases: in vivo
[1] = tested on: SASKR (Salsola iberica (L.), Russian thistle); test: Postemergence foliar-applied herbicidal mixtures, cereal crops, greenhouse (Example III); conditions: Compound A Benzyl Ester 5 gai/ha, visual score 0 to 100 percent after 20-22 days
Protocol: (§1) Seeds of the desired test plant species were planted in Sun Gro MetroMix® 306 planting mixture, which typically has a pH of 6.0 to 6.8 and an organic matter content of about 30 percent, in plastic pots with a surface area of 103.2 square centimeters (cm^2). […] The plants were grown for 7-36 days in a greenhouse with an approximate 14 hour photoperiod which was maintained at about 18° C. during the day and about 17° C. during the night. Nutrients and water were added on a regular basis and supplemental lighting was provided with overhead metal halide 1000-Watt lamps as necessary. The plants were employed for testing when they reached the second or third true leaf stage.
(§2) Treatments consisted of the benzyl ester of 4-amino-3-chloro-5-fluoro-6-(4-chloro-2-fluoro-3-methoxy-phenyl)pyridine-2-carboxylic acid (Compound A), formulated as an SC, a second cereal herbicide alone and then both in combination.
(§3) Other herbicidal components were applied on an active ingredient basis and included acetolactate synthase (ALS)-inhibiting herbicides (sulfonamide chemical class) florasulam formulated as Derby® and pyroxsulam formulated as PowerFlex®. A measured aliquot of benzyl ester of 4-amino-3-chloro-5-fluoro-6-(4-chloro-2-fluoro-3-methoxy-phenyl)pyridine-2-carboxylic acid (Compound A) was placed in 25 milliliter (mL) glass vials and diluted in a volume of 1.25% (v/v) AgriDex® crop oil concentrated to obtain a stock solution. Compound requirements are based upon a 12 mL application volume at a rate of 187 liters per hectare (L/ha). […] Formulated compounds were applied to the plant material with an overhead Mandel track sprayer equipped with an 8002E nozzle calibrated to deliver 187 L/ha over an application area of 0.503 square meters (m^2) at a spray height of 18 inches (46 cm) above average plant canopy. Control plants were sprayed in the same manner with the solvent blank.
(§4) The treated plants and control plants were placed in a greenhouse as described above and watered by sub-irrigation to prevent wash-off of the test compounds. After 20-22 days, the condition of the test plants as compared with that of the control plants was determined visually and scored on a scale of 0 to 100 percent where 0 corresponds to no injury and 100 corresponds to complete kill.
(§5) Colby's equation was used to determine the herbicidal effects expected from the mixtures (Colby, S. R. 1967. Calculation of the synergistic and antagonistic response of herbicide combinations. Weeds 15:20-22.).
(§6) The following equation was used to calculate the expected activity of mixtures containing two active ingredients, A and B: Expected=A+B−(A×B/100)

[2] = tested on: CIRAR (Cirsium arvense (L.) Scop., Canada thistle); test: as above
Protocol: as §1, §2, §3, §4, §5, §6

[3] = tested on: LAMPU (Lamium purpureum (L.), purple deadnettle); test: as above; conditions: Compound A Benzyl Ester 8.75 gai/ha, visual score 0 to 100 percent after 20-22 days
Protocol: as §1, §2, §3, §4, §5, §6

[4] = tested on: VIOTR (Viola tricolor (L.), wild pansy); test: as above; conditions: Compound A Benzyl Ester 5 gai/ha, visual score 0 to 100 percent after 20-22 days
Protocol: as §1, §2, §3, §4, §5, §6

[5] = tested on: MATCH (Chamomilla chamomilla (L.) Rydb., scented mayweed); test: as above; conditions: Compound A Benzyl Ester 5 gai/ha, visual score 0 to 100 percent after 20-22 days
Protocol: as §1, §2, §3, §4, §5, §6

[6] = tested on: VERPE (Veronica persica Poir., bird's-eye speedwell); test: as above; conditions: visual score 0 to 100 percent after 20-22 days
Protocol: as §1, §2, §3, §4, §5, §6

[7] = tested on: ECHCG (Echinochloa crusgalli (L.) Beauv., barnyardgrass); test: In-water applied herbicidal mixtures, transplanted paddy rice, greenhouse (Example II)
Protocol: (§7) Weed seeds or nutlets of the desired test plant species were planted in puddled soil (mud) prepared by mixing a shredded, non-sterilized mineral soil (50.5 percent silt, 25.5 percent clay, and 24 percent sand, with a pH of about 7.6 and an organic matter content of about 2.9 percent) and water at a 1:1 volumetric ratio. The prepared mud was dispensed in 365 mL aliquots into 16-ounce (oz.) non-perforated plastic pots with a surface area of 86.59 square centimeters (cm^2) leaving a headspace of 3 centimeters in each pot. Mud was allowed to dry overnight prior to planting or transplanting. Rice seeds were planted in Sun Gro MetroMix® 306 planting mixture, which typically has a pH of 6.0 to 6.8 and an organic matter content of about 30 percent, in plastic plug trays. Seedlings at the second or third leaf stage of growth were transplanted into 840 mL of mud contained in 32-oz. non-perforated plastic pots with a surface area of 86.59 cm^2 4 days prior to herbicide application. The paddy was created by filling the headspace of the pots with 2.5 to 3 cm of water. When required to ensure good germination and healthy plants, a fungicide treatment and/or other chemical or physical treatment was applied. The plants were grown for 4-22 days in a greenhouse with an approximate 14 h photoperiod which was maintained at about 29′C during the day and about 26° C. during the night. Nutrients were added as Osmocote® (19:6:12, N:P:K+minor nutrients) at 2 g per 16-oz. pot and 4 g per 32-oz. pot. Water was added on a regular basis to maintain the paddy flood, and supplemental lighting was provided with overhead metal halide 1000-Watt lamps as necessary. The plants were employed for testing when they reached the first through fourth true leaf stage.
(§8) Treatments consisted of the acid or esters of 4-amino-3-chloro-5-fluoro-6-(4-chloro-2-fluoro-3-methoxy-phenyl)pyridine-2-carboxylic acid (compound A) each formulated as an SC and various herbicidal components alone and in combination. Forms of compound A were applied on an acid equivalent basis.
(§9) Other herbicidal components were applied on an active ingredient basis and included acetolactate synthase (ALS)-inhibiting herbicides (sulfonamide chemical class) penoxsulam formulated as Grasp® SC (GF-443), diclosulam formulated as Strongarm®, and cloransulam-methyl formulated as FirstRate®.
(§10) Treatment requirements for each compound or herbicidal component were calculated based upon the rates being tested, the concentration of active ingredient or acid equivalent in the formulation, an application volume of 2 mL per component per pot, and an application area of 86.59 cm^2 per pot.
(§11) For formulated compounds, a measured amount was placed in an individual 100 or 200 mL glass vial and was dissolved in a volume of 1.25% (v/v) Agri-Dex® crop oil concentrate to obtain each application solution.
(§12) Applications were made by injecting with a pipetter appropriate amounts of the application solutions, individually and sequentially, into the aqueous layer of the paddy. Control plants were treated in the same manner with the solvent blank. Applications were made so that all treated plant material received the same concentrations of acetone and crop oil concentrate.
(§13) The treated plants and control plants were placed in a greenhouse as described above and water was added as needed to maintain a paddy flood. After approximately 3 weeks the condition of the test plants as compared with that of the untreated plants was determined visually and scored on a scale of 0 to 100 percent where 0 corresponds to no injury or growth inhibition and 100 corresponds to complete kill.
as §5, §6

[8] = tested on: FIMMI (Fimbristylis miliacea (L.) Vahl, globe fringerush); test: as above; conditions: Compound A Benzyl Ester 8 gae/ha
Protocol: as §7, §8, §9, §10, §11, §12, §13, §5, §6

SMILES: COc1c(Cl)ccc(-c2nc(C(=O)OCc3ccccc3)c(Cl)c(N)c2F)c1F [Compound A Benzyl Ester, benzyl ester of 4-amino-3-chloro-5-fluoro-6-(4-chloro-2-fluoro-3-methoxy-phenyl)pyridine-2-carboxylic acid]
- SASKR Obs [1]: 57%
- CIRAR Obs ([2]; Compound A Benzyl Ester 5 gai/ha, visual score 0 to 100 percent after 20-22 days): 40%
- CIRAR Obs ([2]; Compound A Benzyl Ester 8.75 gai/ha, visual score after 20-22 days, Table 17): 40%
- CIRAR Obs ([2]; Compound A Benzyl Ester 8.75 gai/ha, visual score after 20-22 days, Table 18): 40%
- LAMPU Obs [3]: 83%
- VIOTR Obs [4]: 13%
- MATCH Obs [5]: 13%
- VERPE Obs ([6]; Compound A Benzyl Ester 5 gai/ha): 37%
- VERPE Obs ([6]; Compound A Benzyl Ester 8.75 gai/ha): 50%
- Visual Weed Control (%) - 21 DAA ECHCG Obs ([7]; Compound A Benzyl Ester 4.38 gae/ha): 20%
- Visual Weed Control (%) - 21 DAA ECHCG Obs ([7]; Compound A Benzyl Ester 8.75 gae/ha): 85%
- Visual Weed Control (%) - 21 DAA FIMMI Obs [8]: 30%
